The test system of one assay is Magnaporthe grisea. Nature of the assay: whole plant or invertebrate. Particulars: Pyricularia oryzae, in Oryza sativa. The format is in vivo.
The next assay deals with Botrytis cinerea. In words: Test Example B: Gray mold on tomato. The assay is classed as in vivo.
The next assay deals with Alternaia brassicicola. In words: Test Example C: Alternaria sooty spot on cabbage. The assay is classed as in vivo. The settings on record: Brassica oleracea.
Assay [1] concerns Blumeria graminis f. sp. hordei. In words: Test Example D: Powdery mildew on barley. The assay is classed as in vivo.
Another assay concerns Puccinia recondita. Nature of the assay: Test Example E: Brown rust on wheat. The assay is classed as in vivo.
For another assay, the system named is Phytophthora infestans. In words: whole plant or invertebrate. The assay is classed as in vivo. The settings on record: in Solanum lycopersicum.
The subject of another assay is Plasmopara viticola. Nature of the assay: Test Example G: Downy mildew on vine. The format is in vivo.
Assay [2] concerns Colletotrichum orbiculare. Nature of the assay: whole plant or invertebrate. Particulars: in Cucumis sativus, read-out: control value, Test H (anthracnose on cucumber).
Protocol: Seeds of a test plant (cucumber variety: Sagami Hanjiro) were planted and cultivated until the first leaf appeared. In the test, the compounds of the present invention were dissolved into a dimethyl sulfoxide-methanol mixture solution (volume ratio: 9/1), and the resultant solutions were diluted with well water to a concentration of 250 ppm. The thus-obtained dilutions were sprayed to the test plant (2.5 ml/pot). After the dilutions dried, a conidial suspension (2-4×10^5 conidia/ml) of Colletotrichum orbiculare was inoculated to the plant by spraying. After the inoculation, the plant was kept in a mist chamber at room temperature of 20 to 23° C. for about 24 hours to promote the onset of disease. The disease development was investigated 6 to 10 days after the inoculation, and the effectiveness of the dilutions was evaluated.
Disease development in Test Example described above was evaluated in increments of 0.05 by setting 0 as no incidence of disease and 3 as disease development in a plant of untreated group. In addition, control values were calculated using the following equation based on disease development.
Control value=100 {1−(n/3)}
n=Disease development of each treated groups
The mark [3] stands for this setting: Gray mold on tomato, read-out: Test B control value.
Setting [4] is: Alternaria sooty spot on cabbage, read-out: Test C control value.
The mark [5] stands for this setting: Powdery mildew on barley, read-out: Test D control value.
[6] abbreviates: Brown rust on wheat, read-out: Test E control value.
Where [7] appears, read: Downy mildew on vine, 250 ppm sprayed, 2.5 ml/pot, 7 to 10 days after inoculation, read-out: Test G control value.
Setting [8] is: read-out: control value, Test A (blast on rice).
The mark [9] stands for this setting: Table 7, Test B, read-out: control value, Test B (gray mold on tomato).
The mark [10] stands for this setting: Table 7, Test C, read-out: control value, Test C (Alternaria sooty spot on cabbage).
Setting [11] is: Table 7, Test D, read-out: control value, Test D (powdery mildew on barley).
The mark [12] stands for this setting: Table 7, Test E, read-out: control value, Test E (brown rust on wheat).
[13] abbreviates: read-out: control value, Test F (late blight on tomato).
The mark [14] stands for this setting: 250 ppm sprayed (2.5 ml/pot) before inoculation, assessed 7 to 10 days after inoculation, read-out: control value, Test G (downy mildew on vine).

Like-named read-outs stand apart in the source and are kept apart here.

For `CCn1c(-c2c(F)cc(F)cc2F)c(-n2cc(Cl)cn2)cc(Br)c1=O` [compound 71, 5-(4-chloro-1H-pyrazol-1-yl)-1-ethyl-3-bromo-6-(2,4,6-trifluoro-phenyl)pyridin-2(1H)-one], the pest or weed control at 250 µg/mL in the assay on Magnaporthe grisea (read-out: Test A control value) is greater than 50%; in the assay with Botrytis cinerea (setting [3]), greater than 50%; in the assay with Alternaia brassicicola (setting [4]), greater than 50%; in assay [1] (setting [5]), greater than 50%; with Puccinia recondita (setting [6]) it was greater than 50%; in the assay on Phytophthora infestans (read-out: Test F control value), less than 50%. Besides, in the assay on Plasmopara viticola (setting [7]), the pest or weed control at 250 ppm was less than 50%.

Consider `CCn1c(-c2c(F)cc(OC)cc2F)c(-n2cc(Br)cn2)cc(Cl)c1=O` [compound 72, 5-(4-bromo-1H-pyrazol-1-yl)-3-chloro-6-(2,6-difluoro-4-methoxyphenyl)-1-ethylpyridin-2(1H)-one], for which the pest or weed control at 250 µg/mL is greater than 50% in the assay with Magnaporthe grisea (read-out: Test A control value); greater than 50% in the assay on Botrytis cinerea (setting [3]); greater than 50% in the assay with Alternaia brassicicola (setting [4]); greater than 50% in assay [1] (setting [5]); greater than 50% with Puccinia recondita (setting [6]); less than 50% with Phytophthora infestans (read-out: Test F control value). Further, the pest or weed control at 250 ppm in the assay with Plasmopara viticola (setting [7]) is less than 50%.

With `CCn1c(-c2c(F)cccc2F)c(-c2c[nH]cc2C#N)cc(Cl)c1=O` [compound 88, 4-(5-chloro-1-ethyl-6-oxo-2-(2,6-difluorophenyl)-1,6-dihydro-pyridin-3-yl)-1H-pyrrol-3-carbonitrile], the pest or weed control at 250 µg/mL in the assay with Magnaporthe grisea (read-out: Test A control value) was less than 50%; in the assay with Botrytis cinerea (setting [3]) it was less than 50%; with Alternaia brassicicola (setting [4]), greater than 50%; in assay [1] (setting [5]) it was less than 50%; with Puccinia recondita (setting [6]), less than 50%; in the assay with Phytophthora infestans (read-out: Test F control value), less than 50%. In addition, the pest or weed control at 250 ppm in the assay with Plasmopara viticola (setting [7]) was less than 50%.

As for `CCn1c(-c2c(F)cc(F)cc2F)c(-c2ocnc2Cl)cc(Cl)c1=O` [compound 112, 3-chloro-5-(4-chlorooxazol-5-yl)-1-ethyl-6-(2,4,6-trifluoro-phenyl)pyridin-2(1H)-one], the pest or weed control at 250 µg/mL was greater than 50% with Magnaporthe grisea (read-out: Test A control value); greater than 50% with Botrytis cinerea (setting [3]); greater than 50% in the assay on Alternaia brassicicola (setting [4]); greater than 50% in assay [1] (setting [5]); greater than 50% in the assay on Puccinia recondita (setting [6]); less than 50% with Phytophthora infestans (read-out: Test F control value). Further, in the assay on Plasmopara viticola (setting [7]), the pest or weed control at 250 ppm was greater than 50%.

Consider `CCn1c(-c2c(F)cc(F)cc2F)c(-n2cnc(Cl)c2Cl)ccc1=O` [compound 136, 5-(4,5-dichloro-1H-imidazol-1-yl)-1-ethyl-6-(2,4,6-trifluorophenyl)pyridin-2(1H)-one], for which the pest or weed control at 250 µg/mL in the assay with Magnaporthe grisea (read-out: Test A control value) is greater than 50%; in the assay on Botrytis cinerea (setting [3]) it was greater than 50%; with Alternaia brassicicola (setting [4]), greater than 50%; in assay [1] (setting [5]), greater than 50%; in the assay with Puccinia recondita (setting [6]), greater than 50%; in the assay on Phytophthora infestans (read-out: Test F control value), less than 50%. Further, the pest or weed control at 250 ppm in the assay with Plasmopara viticola (setting [7]) is greater than 50%.

As for `CCn1c(-c2c(F)cc(F)cc2F)c(-n2cnc(Cl)c2Cl)cc(Cl)c1=O` [compound 138, 3-chloro-5-(4,5-dichloro-1H-imidazol-1-yl)-1-ethyl-6-(2,4,6-trifluorophenyl)pyridin-2(1H)-one], the pest or weed control at 250 µg/mL with Magnaporthe grisea (read-out: Test A control value) was greater than 50%; in the assay on Botrytis cinerea (setting [3]), greater than 50%; with Alternaia brassicicola (setting [4]), greater than 50%; in assay [1] (setting [5]) it was greater than 50%; with Puccinia recondita (setting [6]), greater than 50%; with Phytophthora infestans (read-out: Test F control value), less than 50%. The pest or weed control at 250 ppm in the assay with Plasmopara viticola (setting [7]) is less than 50%.

For the compound `CCn1c(-c2c(F)cc(F)cc2F)c(-n2cc(Cl)cn2)cc(I)c1=O` [compound 140, 5-(4-chloro-1H-pyrazol-1-yl)-1-ethyl-3-iodo-6-(2,4,6-trifluoro-phenyl)pyridin-2(1H)-one], the pest or weed control at 250 µg/mL in the assay with Magnaporthe grisea (read-out: Test A control value) was less than 50%; with Botrytis cinerea (setting [3]) it was greater than 50%; in the assay with Alternaia brassicicola (setting [4]) it was greater than 50%; in assay [1] (setting [5]), greater than 50%; with Puccinia recondita (setting [6]), greater than 50%; with Phytophthora infestans (read-out: Test F control value) it was less than 50%. Also, the pest or weed control at 250 ppm in the assay with Plasmopara viticola (setting [7]) is less than 50%.

Regarding `CCn1c(-c2c(F)cc(O)cc2F)c(-n2cc(Cl)cn2)cc(Cl)c1=O` [compound 184, 3-chloro-5-(4-chloro-1H-pyrazol-1-yl)-6-(2,6-difluoro-4-hydroxyphenyl)-1-ethylpyridin-2(1H)-one], the pest or weed control at 250 µg/mL with Magnaporthe grisea (setting [8]) was less than 50%; with Botrytis cinerea (setting [9]), greater than 50%; with Alternaia brassicicola (setting [10]), greater than 50%; in assay [1] (setting [11]) it was less than 50%; with Puccinia recondita (setting [12]), greater than 50%; in the assay with Phytophthora infestans (setting [13]), less than 50%. For the same compound, the pest or weed control at 250 ppm (in the assay with Plasmopara viticola (setting [14]); in assay [2]) was greater than 50% in each case.

For the compound `C#CCOc1cc(F)c(-c2c(-n3cc(Cl)cn3)cc(Cl)c(=O)n2CC)c(F)c1` [compound 201, 3-chloro-5-(4-chloro-1H-pyrazol-1-yl)-6-(2,6-difluoro-4-(propargyloxy)phenyl)-1-ethyl pyridin-2(1H)-one], the pest or weed control at 250 µg/mL was greater than 50% with Magnaporthe grisea (setting [8]); greater than 50% in the assay on Botrytis cinerea (setting [9]); greater than 50% with Alternaia brassicicola (setting [10]); greater than 50% in assay [1] (setting [11]); greater than 50% in the assay with Puccinia recondita (setting [12]); less than 50% with Phytophthora infestans (setting [13]). Moreover, the pest or weed control at 250 ppm with Plasmopara viticola (setting [14]) is less than 50%; in assay [2], greater than 50%.

Regarding `C=CCOc1cc(F)c(-c2c(-n3cc(Cl)cn3)cc(Cl)c(=O)n2CC)c(F)c1` [compound 202, 6-(4-(allyloxy)-2,6-difluorophenyl)-3-chloro-5-(4-chloro-1H-pyrazol-1-yl)-1-ethylpyridin-2(1H)-one], the pest or weed control at 250 µg/mL is greater than 50% with Magnaporthe grisea (setting [8]); greater than 50% in the assay with Botrytis cinerea (setting [9]); greater than 50% in the assay with Alternaia brassicicola (setting [10]); greater than 50% in assay [1] (setting [11]); greater than 50% in the assay with Puccinia recondita (setting [12]); less than 50% in the assay with Phytophthora infestans (setting [13]). For the same compound, the pest or weed control at 250 ppm in the assay with Plasmopara viticola (setting [14]) was less than 50%; in assay [2], greater than 50%.

Consider `CCn1c(-c2c(F)cc(OCCOC)cc2F)c(-n2cc(Cl)cn2)cc(Cl)c1=O` [compound 204, 3-chloro-5-(4-chloro-1H-pyrazol-1-yl)-6-(2,6-difluoro-4-(2-methoxyethoxy)phenyl)-1-ethylpyridin-2(1H)-one], for which the pest or weed control at 250 µg/mL in the assay on Magnaporthe grisea (setting [8]) was less than 50%; in the assay on Botrytis cinerea (setting [9]), greater than 50%; in the assay with Alternaia brassicicola (setting [10]) it was greater than 50%; in assay [1] (setting [11]) it was less than 50%; with Puccinia recondita (setting [12]), less than 50%; with Phytophthora infestans (setting [13]), less than 50%. The pest or weed control at 250 ppm is less than 50% with Plasmopara viticola (setting [14]) and greater than 50% in assay [2].

`CCn1c(-c2c(F)cc(OC(C)=O)cc2F)c(-n2cc(Cl)cn2)cc(Cl)c1=O` [compound 205]: the pest or weed control at 250 µg/mL was less than 50% in the assay on Magnaporthe grisea (setting [8]); greater than 50% in the assay on Botrytis cinerea (in Solanum lycopersicum, Table 7, Test B, read-out: control value, Test B (gray mold on tomato)); greater than 50% in the assay on Alternaia brassicicola (setting [10]); less than 50% in assay [1] (in Hordeum vulgare, Table 7, Test D, read-out: control value, Test D (powdery mildew on barley)); greater than 50% in the assay with Puccinia recondita (in Triticum aestivum, Table 7, Test E, read-out: control value, Test E (brown rust on wheat)); less than 50% with Phytophthora infestans (setting [13]). Further, the pest or weed control at 250 ppm (with Plasmopara viticola (setting [14]); in assay [2]) was less than 50% in each case.

On to `CCn1c(-c2c(F)cc(F)cc2F)c(-n2cc(Cl)cn2)cc(C)c1=O` [compound 206, 5-(4-chloro-1H-pyrazol-1-yl)-1-ethyl-3-methyl-6-(2,4,6-trifluoro-phenyl)pyridin-2(1H)-one], for which the pest or weed control at 250 µg/mL with Magnaporthe grisea (setting [8]) was greater than 50%; in the assay on Botrytis cinerea (setting [9]), greater than 50%; with Alternaia brassicicola (setting [10]), greater than 50%; in assay [1] (setting [11]), greater than 50%; with Puccinia recondita (setting [12]), greater than 50%; with Phytophthora infestans (setting [13]), less than 50%. For the same compound, the pest or weed control at 250 ppm in the assay with Plasmopara viticola (setting [14]) was less than 50%; in assay [2], greater than 50%.

Regarding `C#Cc1cc(-n2cc(Cl)cn2)c(-c2c(F)cc(F)cc2F)n(CC)c1=O` [compound 223, 5-(4-chloro-1H-pyrazol-1-yl)-1-ethyl-3-ethynyl-6-(2,4,6-trifluorophenyl)pyridin-2(1H)-one], the pest or weed control at 250 µg/mL is greater than 50% with Magnaporthe grisea (setting [8]); less than 50% in the assay on Botrytis cinerea (setting [9]); greater than 50% in the assay with Alternaia brassicicola (setting [10]); less than 50% in assay [1] (setting [11]); less than 50% with Puccinia recondita (setting [12]); less than 50% in the assay on Phytophthora infestans (setting [13]). The values for the pest or weed control at 250 ppm (in the assay on Plasmopara viticola (setting [14]); in assay [2]) were greater than 50% and less than 50%, respectively.

For the origin of these results see US11178870B2 (priority 2017, dated 2021).
